# Source: patent US11684650B2, “Composition for preventing, alleviating, or treating cachexia and muscle loss” (CHUNG-ANG UNIVERSITY INDUSTRY ACADEMIC COOPERATION …, priority 2018, dated 2023)
# Legend:
# Format in all cases: in vivo, C57BL/6 mice
# [1] = test system: mice with tumors induced by Lewis lung carcinoma (LLC) cells; experiment: Food intake and body weight of LLC tumor-bearing mice; details: oral 14 days, extract 100 mg/kg, Megace 125 mg/kg, mean ± standard deviation
# Procedure: (§1) As experimental animals, 4-week-old male C57BL/6 mice (weighed 18 to 20 g) were purchased from Central Lab Animal Inc., acclimated in a laboratory animal facility for 1 week, and then used in the experiment. During the experiment, the animals were allowed to access feed and water ad libitum, and housed at cages at a temperature of 22±2° C. and a relative humidity of 60±5% under a 12-hr light/12-hr dark cycle.
# (§2) The mice were divided into a normal group (healthy group), a control group (tumor-induced group), a conventional drug-administered group and a Paeoniae radix extract-administered group, each group consisting of 9 animals. […] During the experiment, the food uptake of each mouse was recorded. In addition, the muscle strength of each mouse was measured with a grip strength test device (Bioseb, USA), and the endurance of each mouse was measured under the condition of maximum exercise time of 600 seconds using a treadmill device (Columbus Instrument, USA).
# (§3) While the Paeoniae radix extract was administered orally to the mice for 14 days after tumor induction, the food intake of the mice was recorded. […]
# [2] = test system: IL-6; experiment: Serum and muscle inflammatory cytokine ELISA, MC38 tumor-bearing mice; details: oral 14 days, extract 100 mg/kg, Megace 125 mg/kg, mean ± standard deviation
# Procedure: as §2, with “animals. Each animal of the normal group was injected subcutaneously with 100 μl of PBS, and the tumor-induced group (control group), the conventional drug-administered group and the Paeoniae radix extract-administered group were injected subcutaneously with MC38 colorectal cancer cells (1×10^6 cells/100 μl) or Lewis lung carcinoma (LLC) cells (1×10^6 cells/100 μl).” for “animals.”
# (§4) After completion of the experiment, the mice were euthanized, blood was collected therefrom, and then the tumor weight and the hind limb muscle weight were measured, and the serum and muscle concentrations of TNF-α, IL-6, IL-1 and MCP-1 were quantified by ELISA assay. […]
# After the Paeoniae radix extract was administered orally to the mice for 14 days after tumor induction, the mice were euthanized and the serum and muscle concentrations of inflammatory cytokines were measured. […]
# [3] = test system: MC38 colorectal cancer cells; experiment: Tumor weight, MC38 tumor-bearing mice; details: oral 14 days, extract 100 mg/kg, Megace 125 mg/kg, mean ± standard deviation
# Procedure: as §2, with “animals. Each animal of the normal group was injected subcutaneously with 100 μl of PBS, and the tumor-induced group (control group), the conventional drug-administered group and the Paeoniae radix extract-administered group were injected subcutaneously with MC38 colorectal cancer cells (1×10^6 cells/100 μl) or Lewis lung carcinoma (LLC) cells (1×10^6 cells/100 μl).” for “animals.”
# as §4
# (§5) After the Paeoniae radix extract was administered orally to the mice for 14 days after tumor induction, the mice were euthanized and the tumor weight was measured. […]
# [4] = test system: mice with tumors induced by MC38 colorectal cancer cells; experiment: Treadmill running time test, MC38 tumor-bearing mice; details: maximum 600 seconds, day 12 of oral treatment, extract 100 mg/kg, Megace 125 mg/kg, mean ± standard deviation
# Procedure: as §2, with “animals. Each animal of the normal group was injected subcutaneously with 100 μl of PBS, and the tumor-induced group (control group), the conventional drug-administered group and the Paeoniae radix extract-administered group were injected subcutaneously with MC38 colorectal cancer cells (1×10^6 cells/100 μl) or Lewis lung carcinoma (LLC) cells (1×10^6 cells/100 μl).” for “animals.”
# (§6) On day 12th day of the oral treatment of conventional drug or the Paeoniae radix extract to the tumor-induced mice, the muscle strength and endurance of the mice were measured by a grip strength (g) test and a treadmill running time (sec) test, respectively.
# [5] = test system: mice with tumors induced by MC38 colorectal cancer cells; experiment: Food intake of MC38 tumor-bearing mice; details: oral 14 days, extract 100 mg/kg, Megace 125 mg/kg, mean ± standard deviation
# Procedure: as §1, §2, §3
# [6] = test system: mice with tumors induced by MC38 colorectal cancer cells; experiment: Grip strength test, MC38 tumor-bearing mice; details: grip strength on day 12 of oral treatment, extract 100 mg/kg, Megace 125 mg/kg, mean ± standard deviation
# Procedure: as §2, with “animals. Each animal of the normal group was injected subcutaneously with 100 μl of PBS, and the tumor-induced group (control group), the conventional drug-administered group and the Paeoniae radix extract-administered group were injected subcutaneously with MC38 colorectal cancer cells (1×10^6 cells/100 μl) or Lewis lung carcinoma (LLC) cells (1×10^6 cells/100 μl).” for “animals.”
# as §6
# [7] = test system: mice with tumors induced by Lewis lung carcinoma (LLC) cells; experiment: Grip strength test, LLC tumor-bearing mice; details: grip strength on day 12 of oral treatment, extract 100 mg/kg, Megace 125 mg/kg, mean ± standard deviation
# Procedure: as §2, with “animals. Each animal of the normal group was injected subcutaneously with 100 μl of PBS, and the tumor-induced group (control group), the conventional drug-administered group and the Paeoniae radix extract-administered group were injected subcutaneously with MC38 colorectal cancer cells (1×10^6 cells/100 μl) or Lewis lung carcinoma (LLC) cells (1×10^6 cells/100 μl).” for “animals.”
# as §6
# [8] = test system: Lewis lung carcinoma (LLC) cells; experiment: Tumor weight, LLC tumor-bearing mice; details: oral 14 days, extract 100 mg/kg, Megace 125 mg/kg, mean ± standard deviation
# Procedure: as §2, with “animals. Each animal of the normal group was injected subcutaneously with 100 μl of PBS, and the tumor-induced group (control group), the conventional drug-administered group and the Paeoniae radix extract-administered group were injected subcutaneously with MC38 colorectal cancer cells (1×10^6 cells/100 μl) or Lewis lung carcinoma (LLC) cells (1×10^6 cells/100 μl).” for “animals.”
# as §4, §5
# [9] = test system: TNF-α, IL-6, MCP-1; experiment: Serum and muscle inflammatory cytokine ELISA, LLC tumor-bearing mice; details: oral 14 days, extract 100 mg/kg, Megace 125 mg/kg, mean ± standard deviation
# Procedure: The mice were divided into a normal group (healthy group), a control group (tumor-induced group), a conventional drug-administered group and a Paeoniae radix extract-administered group, each group consisting of 9 animals. Each animal of the normal group was injected subcutaneously with 100 μl of PBS, and the tumor-induced group (control group), the conventional drug-administered group and the Paeoniae radix extract-administered group were injected subcutaneously with MC38 colorectal cancer cells (1×10^6 cells/100 μl) or Lewis lung carcinoma (LLC) cells (1×10^6 cells/100 μl). When the tumor volume reached about 1,000 mm^3 after 2 weeks of tumor induction, the cancer cachexia treatment agent Megace (megestrol acetate), which is most frequently used in current clinical practice, was administered orally to the conventional drug-administered group. Dose of Megace was 125 mg/kg (=625 mg [daily human dose]/60 kg [human's average body weight]×12 [human/mouse body surface area dose equivalent factor]) for 14 days. Paeoniae radix extract prepared in Example 1 was administered orally to the Paeoniae radix extract-administered group for 14 days at a dose of 100 mg/kg, which is slightly lower than the dose of Megace. During the experiment, the food uptake of each mouse was recorded. In addition, the muscle strength of each mouse was measured with a grip strength test device (Bioseb, USA), and the endurance of each mouse was measured under the condition of maximum exercise time of 600 seconds using a treadmill device (Columbus Instrument, USA).
# After completion of the experiment, the mice were euthanized, blood was collected therefrom, and then the tumor weight and the hind limb muscle weight were measured, and the serum and muscle concentrations of TNF-α, IL-6, IL-1 and MCP-1 were quantified by ELISA assay. In addition, the effect of the Paeoniae radix extract on the reduction of muscle atrophy factor (MAFbx) in the hind limb muscle of each LCC cancer-bearing mouse was measured using Western blot and immunofluorescence known in the art.
# After the Paeoniae radix extract was administered orally to the mice for 14 days after tumor induction, the mice were euthanized and the serum and muscle concentrations of inflammatory cytokines were measured. As a result, as shown in Table 4 below and FIGS. 2 and 8, the concentrations of tumor-induced inflammatory cytokines increased in the control group (tumor-induced group) compared to the normal (healthy) group.
# [10] = test system: mice with tumors induced by Lewis lung carcinoma (LLC) cells; experiment: Treadmill running time test, LLC tumor-bearing mice; details: maximum 600 seconds, day 12 of oral treatment, extract 100 mg/kg, Megace 125 mg/kg, mean ± standard deviation
# Procedure: as §2, with “animals. Each animal of the normal group was injected subcutaneously with 100 μl of PBS, and the tumor-induced group (control group), the conventional drug-administered group and the Paeoniae radix extract-administered group were injected subcutaneously with MC38 colorectal cancer cells (1×10^6 cells/100 μl) or Lewis lung carcinoma (LLC) cells (1×10^6 cells/100 μl).” for “animals.”
# as §6
smiles,measurement,setting,value
"CC(=O)O[C@]1(C(C)=O)CC[C@H]2[C@@H]3C=C(C)C4=CC(=O)CC[C@]4(C)[C@H]3CC[C@@]21C [Conventional drug, megestrol acetate]",Food intake,[1],2.891 ± 0.417 g
same,"Cytokine concentration, Muscle IL-6",[2],156.167 ± 29.486 pg/mL
same,"Cytokine concentration, Serum IL-6",[2],49.222 ± 22.762 pg/mL
same,Tumor weight,[3],11.747 ± 3.073 g
same,Endurance,[4],177.400 ± 60.844 s
same,Food intake,[5],2.607 ± 0.357 g
same,Muscle strength,[6],172.065 ± 28.210 g
same,Muscle strength,[7],154.883 ± 17.238 g
same,Tumor weight,[8],7.797 ± 2.385 g
same,"Cytokine concentration, Muscle TNF-α",[9],21.910 ± 5.414 pg/mL
same,"Cytokine concentration, Serum IL-6",[9],15.616 ± 8.902 pg/mL
same,"Cytokine concentration, Serum MCP-1",[9],431.670 ± 191.640 pg/mL
same,"Cytokine concentration, Serum TNF-α",[9],3.302 ± 0.422 pg/mL
same,Endurance,[10],338.333 ± 157.322 s
